Results taken from patent US7135462B2, “Hepatitis C virus inhibitors” (priority 2003, dated 2006).
Where two headings read alike, the source gives them in different places.

Key:
[1] = biological target: T1, HCV NS3/4A protease complex (BMS strain) (UniProt P27958, C1454S/C1711G, species not given); experiment: Recombinant HCV NS3/4A protease complex FRET peptide assay; format: biochemical, Hepatitis C virus (HCV), genotype 1a; settings: NS3/4A BMS strain, activity range class
T1 construct: for H77 and J4L6S; fused on or other part: Three-lysine solubilising tail at the C-terminus of NS4A
From the text: Recombinant HCV NS3/4A Protease Complex FRET Peptide Assay
Serum from an HCV-infected patient was obtained from Dr. T. Wright, San Francisco Hospital. An engineered full-length cDNA (compliment deoxyribonucleic acid) template of the HCV genome (BMS strain) was constructed from DNA fragments obtained by reverse transcription-PCR (RT-PCR) of serum RNA (ribonucleic acid) and using primers selected on the basis of homology between other genotype 1a strains.
The H77 and J4L6S strains were used for production of recombinant NS3/4A protease complexes. […] Briefly, a three-lysine solubilizing tail was added at the 3′-end of the NS4A coding region. […] Briefly, the NS3/4A protease complex expression was induced with 0.5 millimolar (mM) Isopropyl β-D-1-thiogalactopyranoside (IPTG) for 22 hours (h) at 20° C. […] The cells were resuspended in lysis buffer (10 mL/g) consisting of 25 mM N-(2-Hydroxyethyl)piperazine-N′-(2-Ethane Sulfonic acid) (HEPES), pH 7.5, 20% glycerol, 500 mM Sodium Chloride (NaCl), 0.5% Triton X-100, 1 microgram/milliliter (“μg/mL”) lysozyme, 5 mM Magnesium Chloride (MgCl2), 1 μg/ml DnaseI, 5 mM β-Mercaptoethanol (βME), Protease inhibitor—Ethylenediamine Tetraacetic acid (EDTA) free (Roche), homogenized and incubated for 20 minutes (min) at 4° C. The homogenate was sonicated and clarified by ultra-centrifugation at 235000 g for 1 h at 4° C. Imidazole was added to the supernatant to a final concentration of 15 mM and the pH adjusted to 8.0. The crude protein extract was loaded on a Nickel—Nitrilotriacetic acid (Ni-NTA) column pre-equilibrated with buffer B (25 mM HEPES, pH 8.0, 20% glycerol, 500 mM NaCl, 0.5% Triton X-100, 15 mM imidazole, 5 mM βME). The sample was loaded at a flow rate of 1 mL/min. The column was washed with 15 column volumes of buffer C (same as buffer B except with 0.2% Triton X-100). The protein was eluted with 5 column volumes of buffer D (same as buffer C except with 200 mM Imidazole).
NS3/4A protease complex-containing fractions were pooled and loaded on a desalting column Superdex-S200 pre-equilibrated with buffer D (25 mM HEPES, pH 7.5, 20% glycerol, 300 mM NaCl, 0.2% Triton X-100, 10 mM βME). Sample was loaded at a flow rate of 1 mL/min. NS3/4A protease complex-containing fractions were pooled and concentrated to approximately 0.5 mg/ml.
The enzyme was stored at −80° C., thawed on ice and diluted prior to use in assay buffer. […] The sequence of this peptide is loosely based on the NS4A/NS4B natural cleavage site for the HCV NS3 protease except there is an ester linkage rather than an amide bond at the cleavage site. The peptide substrate was incubated with one of the three recombinant NS3/4A protease complexes, in the absence or presence of a compound of the present invention, and the formation of fluorescent reaction product was followed in real time using a Cytofluor Series 4000.
The reagents were as follow: HEPES and Glycerol (Ultrapure) were obtained from GIBCO-BRL. Dimethyl Sulfoxide (DMSO) was obtained from Sigma. β-Mercaptoethanol was obtained from Bio Rad.
Assay buffer: 50 mM HEPES, pH 7.5; 0.15 M NaCl; 0.1% Triton; 15% Glycerol; 10 mM βME. Substrate: 2 μM final concentration (from a 2 mM stock solution in DMSO stored at −20° C.). HCV NS3/4A protease type 1a (1b), 2–3 nM final concentration (from a 5 μM stock solution in 25 mM HEPES, pH 7.5, 20% glycerol, 300 mM NaCl, 0.2% Triton-X100, 10 mM βME).
The assay was performed in a 96-well polystyrene black plate from Falcon.

[2] = tested on: HCV replicon in Huh7 cells; experiment: microbe, parasite or virus in culture; format: cell-based, strain 1b; settings: Hepatitis C virus, Huh-7, 96 h; Huh7 cells expressing HCV replicon, 4 days; activity range class
From the text: Generation of HCV Replicon
This system enabled us to evaluate the effects of our HCV Protease compounds on HCV RNA replication. Briefly, using the HCV strain 1b sequence described in the Lohmann paper (Assession number: AJ238799), an HCV cDNA was generated encoding the 5′ internal ribosome entry site (IRES), the neomycin resistance gene, the EMCV (encephalomyocarditis viurs)-IRES and the HCV nonstructural proteins, NS3-NS5B, and 3′ non-translated region (NTR). In vitro transcripts of the cDNA were transfected into the human hepatoma cell line, Huh7. […] Resulting cell lines were characterized for positive and negative strand RNA production and protein production over time.
Huh7 cells, constitutively expressing the HCV replicon, were grown in Dulbecco's Modified Eagle Media (DMEM) containing 10% Fetal calf serum (FCS) and 1 mg/ml G418 (Gibco-BRL). Cells were seeded the night before (1.5×10^4 cells/well) in 96-well tissue-culture sterile plates. Compound and no compound controls were prepared in DMEM containing 4% FCS, 1:100 Penicillin/Streptomysin, 1:100 L-glutamine and 5% DMSO in the dilution plate (0.5% DMSO final concentration in the assay). Compound/DMSO mixes were added to the cells and incubated for 4 days at 37° C. After 4 days, plates were rinsed thoroughly with Phosphate-Buffered Saline (PBS) (3 times 150 μl). The cells were lysed with 25 μl of a lysis assay reagent containing the FRET peptide (RET S1, as described for the in vitro enzyme assay). The lysis assay reagent was made from 5× cell Luciferase cell culture lysis reagent (Promega #E153A) diluted to 1× with distilled water, NaCl added to 150 mM final, the FRET peptide diluted to 10 μM final from a 2 mM stock in 100% DMSO. The plate was then placed into the Cytofluor 4000 instrument which had been set to 340 nm excitation/490 nm emission, automatic mode for 21 cycles and the plate read in a kinetic mode. EC50 determinations were carried out as described for the IC50 determinations. […]
The percentage inhibition was calculated using the formula below: […]
The values were graphed and analyzed using XLFit to obtain the EC50 value.

Compound	IC50 ([1]; read-out: IC50)	EC50 [2]	IC50 [1]
C=C[C@@H]1C[C@]1(NC(=O)[C@@H]1C[C@@H](Oc2nccc3c(C(F)(F)F)cccc23)CN1C(=O)[C@@H](NC(=O)OC(C)(C)C)C(C)(C)C)C(=O)NS(=O)(=O)C1(CC)CC1 [Cpd 104]	< 0.1 µM	0.1 to 1 µM	–
C=C[C@@H]1C[C@]1(NC(=O)[C@@H]1C[C@@H](Oc2nccc3c(Cl)c(OC)ccc23)CN1C(=O)[C@@H](NC(=O)OC(C)(C)C)C(C)(C)C)C(=O)NS(=O)(=O)C1(CC)CC1 [Cpd 105]	< 0.1 µM	< 0.1 µM	–
C=C[C@@H]1C[C@]1(NC(=O)[C@@H]1C[C@@H](Oc2nccc3c(OC)c(Cl)ccc23)CN1C(=O)[C@@H](NC(=O)OC(C)(C)C)C(C)(C)C)C(=O)NS(=O)(=O)C1(CC)CC1 [Cpd 106]	< 0.1 µM	< 0.1 µM	–
C=C[C@@H]1C[C@]1(NC(=O)[C@@H]1C[C@@H](Oc2ncc(Cl)c3cc(OC)ccc23)CN1C(=O)[C@@H](NC(=O)OC(C)(C)C)C(C)(C)C)C(=O)NS(=O)(=O)C1(CC)CC1 [Cpd 107]	< 0.1 µM	< 0.1 µM	–
C=C[C@@H]1C[C@]1(NC(=O)[C@@H]1C[C@@H](Oc2nccc3c4c(ccc23)OCCO4)CN1C(=O)[C@@H](NC(=O)OC(C)(C)C)C(C)(C)C)C(=O)NS(=O)(=O)C1(CC)CC1 [Cpd 108]	< 0.1 µM	< 0.1 µM	–
C=C[C@@H]1C[C@]1(NC(=O)[C@@H]1C[C@@H](Oc2nccc3cc(OC)c(F)cc23)CN1C(=O)[C@@H](NC(=O)OC(C)(C)C)C(C)(C)C)C(=O)NS(=O)(=O)C1(CC)CC1 [Cpd 109]	< 0.1 µM	< 0.1 µM	–
C=C[C@@H]1C[C@]1(NC(=O)[C@@H]1C[C@@H](Oc2cc3c(Cl)nccc3cc2OC)CN1C(=O)[C@@H](NC(=O)OC(C)(C)C)C(C)(C)C)C(=O)NS(=O)(=O)C1(CC)CC1 [Cpd 110]	< 0.1 µM	< 0.1 µM	–
C=C[C@@H]1C[C@]1(NC(=O)[C@@H]1C[C@@H](Oc2nccc3c(Cl)cccc23)CN1C(=O)[C@@H](NC(=O)OC(C)C)C(C)(C)C)C(=O)NS(=O)(=O)C1(CC)CC1 [Cpd 111]	< 0.1 µM	< 0.1 µM	–
C=C[C@@H]1C[C@]1(NC(=O)[C@@H]1C[C@@H](Oc2ncc(Cl)c3ccccc23)CN1C(=O)[C@@H](NC(=O)OC(C)C)C(C)(C)C)C(=O)NS(=O)(=O)C1(CC)CC1 [Cpd 112]	< 0.1 µM	0.1 to 1 µM	–
C=C[C@@H]1C[C@]1(NC(=O)[C@@H]1C[C@@H](Oc2nc(Cl)cc3c(OC)cccc23)CN1C(=O)[C@@H](NC(=O)OC(C)(C)C)C(C)(C)C)C(=O)NS(=O)(=O)C1(CC)CC1 [Cpd 113]	–	0.1 to 1 µM	< 0.1 µM
